Data reported in patent US20080097385A1, “Therapeutic Adjuncts to Enhance the Organ Protective Effects of Postconditioning” (priority 2004, published 2008).
Where two headings read alike, the source gives them in different places.

Assays:
[1] = system: rat model of myocardial infarction; assay: Rat model of myocardial infarction: LCA occlusion 30 min, reperfusion 3 h; infarct size with cariporide with or without postconditioning; type: in vivo
Description: Cross-hatched bar=time when the sodium-hydrogen exchange inhibitor (NHE-1), cariporide is administered intravenously. Vertical hatched bar=postconditioning algorithm. Control (n=8); occlusion of the left coronary artery (LCA) for 30 min (dark bar), was followed by 3 h of reperfusion (open bar). Post-con (n=8); 10 of full reperfusion (R, open bar) and 10 s of re-occlusion ischemia (I, dark bar) were repeated for three cycles. NHE(1) (n=8); cariporide (1 mg/kg) was injected 5 min prior to reperfusion, followed by unbridled R. NHE(1)+Post-con (n=8); cariporide followed by Post-con. Delay (D)-NHE(1) (n=8); cariporide was injected for 5 min after 1 min of full unbridled reperfusion. Post-con+D-NHE(1) (n=8); Post-con followed by injecting cariporide for 5 min. […] Infarct size is expressed as a percentage of AN and AAR. In all groups, infarct size decreased compared to that of Control. […] Post-con=postconditioning. Values are means ±SEM. Postconditioning can be enhanced by pharmacological means which capture the protective actions of the proximal mediators such as adenosine and opioids. In a rat model of myocardial infarction, it can be shown that the dual approach of attenuating reperfusion injury by applying postconditioning in the presence of a sodium-hydrogen exchange (NHE-1) inhibitor during early reperfusion achieves greater infarct size reduction than either intervention alone. Specifically, in an anesthetized rat model, the left coronary artery (LCA) was occluded for 30 min of ischemia (I) and reperfused for 3 hours. Rats were randomly divided into six groups (n=8 each) (FIG. 10): Control: no intervention at reperfusion; Postconditioning: three cycles of 10-s reperfusion followed by 10-s re-occlusion were applied during the first minute of reperfusion; NHE(1): cariporide (1 mg/kg) was infused 5 min before reperfusion, with or without postconditioning; Delayed (D)-NHE(1): a 5-minute infusion of cariporide was begun 1 min after onset of reperfusion equivalent to postconditioning period; Post-con+D-NHE(1): Completion of postconditioning was followed immediately by cariporide infusion for 5 min. […] When NHE(1) preceded postconditioning as a reperfusion intervention, infarct size was not further reduced (45±2%*) compared to either intervention alone. However, an additive reduction in infarct size was achieved when postconditioning preceded NHE(1) inhibitor at reperfusion (Post-con+D-N-HE(1), 34±2%). Thus, infarct size reduction by postconditioning is enhanced by NHE inhibition at reperfusion when postconditioning precedes cariporide administration.

[2] = system: rabbit model of myocardial infarction; details: cited from earlier work
[3] = system: anesthetized open-chest rats (LCA occlusion/reperfusion); assay: Anesthetized open-chest rats: LCA occlusion 30 min, reperfusion 3 h; infarct size (TTC) with adenosine receptor antagonists with or without postconditioning; type: in vivo; details: rat
Description: (§1) Adenosine is a mediator of the cardioprotection of postconditioning. Isolated-perfused mouse hearts were subjected to 20 min global ischemia (I) and 30 min reperfusion (R) with or without Postcon (6 cycles of 10 sec. R & occlusion). Intravascular purines in coronary effluent were analyzed by HPLC. To determine whether endogenous adenosine played a physiological role in postconditioning, the left coronary artery (LCA) was occluded for 30 min and reperfused for 3 hours in anesthetized open-chest rats. The rats were randomly divided into six groups (n=8 each): Control (no intervention); postconditioning (3 cycles of 10-s R followed by 10-s LCA I before 3 hours R); 8-SPT (subtype non-selective adenosine receptor antagonist, 10 mg/kg), or ZW241385 (A2a receptor antagonist, 0.2 mg/kg), was given 5 min before R with or without postconditioning. In mouse hearts, postconditioning decreased effluent [adenosine] at 2 min R (58±5* vs 155±16 nM/min/g), and improved contractile function (LV developed pressure 32±7* vs 16±2 mmHg) and end-diastolic pressure (27±3* vs 36±3 mmHg) at 5 min R which persisted at 30 min R. In in vivo rats, postconditioning reduced infarct size (TTC) vs the control group (40±3.1%* vs 52±2.2%). 8-SPT (51±2.5%) or ZM241385 alone (50±2.1%) without postconditioning had no effect on infarct size. The infarct-sparing effect of postconditioning was abrogated by 8-SPT and ZM241385 (50±1.8% and 49±2.6%). Neutrophil (PMN) accumulation (myeloperoxidase activity) in the area at risk was less in postconditioning vs Control (1.0±0.2* vs 2.2±0.4 U/100 g protein); adenosine receptor antagonists blocked the reduction of PMN accumulation in postconditioning (postconditioning+8-SPT 2.1±0.2; postconditioning+ZM241385 1.6+0.2).

[4] = system: anesthetized open-chest rats (LCA occlusion/reperfusion); assay: Neutrophil (PMN) accumulation (myeloperoxidase activity) in the area at risk, rat LCA occlusion/reperfusion; type: in vivo; details: postconditioning + antagonist, postconditioning 1.0±0.2, Control 2.2±0.4
Description: as §1, with “The infarct-sparing effect of postconditioning was abrogated by 8-SPT and ZM241385 (50±1.8% and 49±2.6%). Neutrophil (PMN) accumulation (myeloperoxidase activity) in the area at risk was less in postconditioning vs Control (1.0±0.2* vs 2.2±0.4 U/100 g protein); adenosine receptor antagonists blocked the reduction of PMN accumulation in postconditioning (postconditioning+8-SPT 2.1±0.2; postconditioning+ZM241385 1.6+0.2).” left out

[5] = antagonist alone, given 5 min before reperfusion, without postconditioning, control 52±2.2%
[6] = antagonist given 5 min before reperfusion, with postconditioning, postconditioning alone 40±3.1%

CC(C)c1ccc(C(=O)NC(=N)N)cc1S(C)(=O)=O [cariporide]
infarct size (AN as percentage of AAR) ([1]; NHE(1) alone: cariporide 1 mg/kg infused 5 min before reperfusion, no postconditioning): 43±2%
infarct size (AN as percentage of AAR) ([1]; NHE(1)+Post-con: cariporide 1 mg/kg 5 min before reperfusion, followed by postconditioning): 45±2%
decrease in infarct size compared with postconditioning alone ([1]; Post-con+D-NHE(1) group, FIG. 11): significantly greater than postconditioning alone
infarct size (AN as percentage of AAR) ([1]; Post-con+D-NHE(1): postconditioning followed immediately by 5 min cariporide infusion): 34±2%

FC(F)OC(Cl)C(F)(F)F (stereo not shown) [isoflurane]
infarct size ([2]; 0.5 minimum alveolar concentration isoflurane alone, control 41±2%): 43±3 % of the left ventricular area at risk
infarct size ([2]; 1.0 minimum alveolar concentration isoflurane alone, control 41±2%): 21±2 % of the left ventricular area at risk
infarct size ([2]; combined postconditioning (10 s) and 0.5 minimum alveolar concentration isoflurane): 17±5 % of the left ventricular area at risk

Nc1nc(NCCc2ccc(O)cc2)nc2nc(-c3ccco3)nn12 [ZM241385]
infarct size (TTC) [3, 5]: 50±2.1%
infarct size (TTC) [3, 6]: 49±2.6%
neutrophil (PMN) accumulation (myeloperoxidase activity) in the area at risk [4]: 1.6+0.2 U/100 g protein

Cn1c(=O)c2[nH]c(-c3ccc(S(=O)(=O)O)cc3)nc2n(C)c1=O [8-SPT]
infarct size (TTC) [3, 5]: 51±2.5%
infarct size (TTC) [3, 6]: 50±1.8%
neutrophil (PMN) accumulation (myeloperoxidase activity) in the area at risk [4]: 2.1±0.2 U/100 g protein
